PubChem BioAssay AID1963858 (Molecular Pharmacology Branch, DTP, NCI, 2024)

Test system: HOP-62 multicell spheroids with HUVEC/MSC, viability
Test: Anticancer human tumor HOP-62 cell line growth inhibition [KRAS2];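 note: viability read after a week of compound exposure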;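 for viability, T/C: 100% = DMSO vehicle-treated spheroids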
Conditions: for IC50: curve of first compound; for viability, T/C: stronger effect = lower value
In short: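 Combination screen of spheroid viability in tumor-cell co-cultures with endothelial (HUVEC) and mesenchymal stem cell stroma. Each agent was tested in half-log dilutions, topping at clinical Cmax or at 10 microM without a known Cmax.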

[1] = second compound 0.1 µM, first compound 0.0316 µM
[2] = second compound 0.1 µM, first compound 0.1 µM
[3] = second compound 0.1 µM, first compound 0.316 µM
[4] = second compound 0.1 µM, first compound 1 µM
[5] = second compound 0.1 µM, first compound 3.16 µM
[6] = second compound 0.316 µM, first compound 0.0316 µM
[7] = second compound 0.316 µM, first compound 0.1 µM
[8] = second compound 0.316 µM, first compound 0.316 µM
[9] = second compound 0.316 µM, first compound 1 µM
[10] = second compound 0.316 µM, first compound 3.16 µM
[11] = second compound 1 µM, first compound 0.0316 µM
[12] = second compound 1 µM, first compound 0.1 µM
[13] = second compound 1 µM, first compound 0.316 µM
[14] = second compound 1 µM, first compound 1 µM
[15] = second compound 1 µM, first compound 3.16 µM
[16] = second compound 3.16 µM, first compound 0.0316 µM
[17] = second compound 3.16 µM, first compound 0.1 µM
[18] = second compound 3.16 µM, first compound 0.316 µM
[19] = second compound 3.16 µM, first compound 1 µM
[20] = second compound 3.16 µM, first compound 3.16 µM

Row | SMILES | IC50 (second compound 0.1 µM) | IC50 (second compound 0.316 µM) | IC50 (second compound 1 µM) | IC50 (second compound 3.16 µM) | viability, T/C [1] | viability, T/C [2] | viability, T/C [3] | viability, T/C [4] | viability, T/C [5] | viability, T/C [6] | viability, T/C [7] | viability, T/C [8] | viability, T/C [9] | viability, T/C [10] | viability, T/C [11] | viability, T/C [12] | viability, T/C [13] | viability, T/C [14] | viability, T/C [15] | viability, T/C [16] | other results
1 | CC(=O)OC12COC1CC(O)C1(C)C(=O)C(O)C3=C(C)C(OC(=O)C(O)C(NC(=O)OC(C)(C)C)c4ccccc4)CC(O)(C(OC(=O)c4ccccc4)C21)C3(C)C (stereo not given) + C=CC(=O)N1CCN(c2nc(OCC3CCCN3C)nc3c2CCN(c2cccc4cccc(C)c24)C3)CC1CC#N | < 10 nM | < 10 nM | < 10 nM | < 10 nM | 22.7% | 20.7% | 20.1% | 23.2% | 23.2% | 20.1% | 17.5% | 16.9% | 20.2% | 19.9% | 12.1% | 17.1% | 16.2% | 18.2% | 18.9% | 26.9% | IC50 (second compound 0.0316 µM): < 10 nM; viability, T/C (second compound 0.0316 µM, first compound 0.01 µM): 31.2%; viability, T/C (second compound 0.0316 µM, first compound 0.0316 µM): 26.2%; viability, T/C (second compound 0.0316 µM, first compound 0.1 µM): 26.6%; viability, T/C (second compound 0.0316 µM, first compound 0.316 µM): 28.6%; viability, T/C (second compound 0.0316 µM, first compound 1 µM): 30.2%; viability, T/C (second compound 0.0316 µM, first compound 3.16 µM): 35.1%; viability, T/C (second compound 0.1 µM, first compound 0.01 µM): 19.4%; viability, T/C (second compound 0.316 µM, first compound 0.01 µM): 18.7%; viability, T/C (second compound 1 µM, first compound 0.01 µM): 18.7%; viability, T/C (second compound 3.16 µM, first compound 0.01 µM): 27.7%; viability, T/C [17]: 23.2%; viability, T/C [18]: 28.5%; viability, T/C [19]: 25.5%; viability, T/C [20]: 27.6%
2 | COC(=O)c1ccc2c(C(=Nc3ccc(N(C)C(=O)CN4CCN(C)CC4)cc3)c3ccccc3)c(O)[nH]c2c1 + C=CC(=O)N1CCN(c2nc(=O)n(-c3c(C)ccnc3C(C)C)c3nc(-c4c(O)cccc4F)c(F)cc23)C(C)C1 | < 31.6 nM | < 31.6 nM | < 31.6 nM | < 31.6 nM | 40.2% | 30.1% | 25.5% | 23.3% | 24.8% | 36.4% | 29.9% | 26.8% | 25.7% | 21.7% | 37.2% | 32.5% | 26.1% | 26.9% | 26.7% | 40.5% | IC50 (second compound 10 µM): < 31.6 nM; viability, T/C (second compound 0.1 µM, first compound 10 µM): 13%; viability, T/C (second compound 0.316 µM, first compound 10 µM): 14.3%; viability, T/C (second compound 1 µM, first compound 10 µM): 2.61%; viability, T/C [17]: 31.5%; viability, T/C [18]: 29.9%; viability, T/C [19]: 27.5%; viability, T/C [20]: 22.7%; viability, T/C (second compound 3.16 µM, first compound 10 µM): 2.66%; viability, T/C (second compound 10 µM, first compound 0.0316 µM): 47%; viability, T/C (second compound 10 µM, first compound 0.1 µM): 36.2%; viability, T/C (second compound 10 µM, first compound 0.316 µM): 55.4%; viability, T/C (second compound 10 µM, first compound 1 µM): 30.9%; viability, T/C (second compound 10 µM, first compound 3.16 µM): 10.2%; viability, T/C (second compound 10 µM, first compound 10 µM): 1.93%
